Measurements taken from patent publication US20250136689A1, “COMPOSITIONS FOR AND METHODS OF TREATING HEMATOLOGICAL CANCERS” (Duke University, priority 2022, published 2025).
Like-named read-outs stand apart in the source and are kept apart here.

Key:
various cancer cells = various cancer cells in vitro; versus irinotecan; cited from earlier work
[1] = test system: c1498 murine AML (Acute Myeloid Leukemia) cells; assay: Survival of FACS-sorted phosphatidylserine-positive c1498 AML cells; type: cell-based; conditions: Mus musculus, c1498 cells treated with cytarabine (1 μM) for 24 hrs, estimated from growth rates
Excerpt: FIG. 1A-FIG. 1C show the survival of phosphatidylserine-expressing AML cells. […] The rectangles indicate the sorted cells. […] About 1000 each of the sorted cells were placed into multi-well plates. When the cells reached sufficient numbers, they were counted at different time points to measure their growth rates. The growth rates were then used to estimate the initial live cell numbers. The following formula was used to calculate the minimal initial live cell numbers: Minimal initial cell number=Total cell population/(growth rate*t)(days to reach the current cell number).
To determine whether cells expression high-level of PS expression on the cell surface are destined to die, the viability of c1498 murine AML (Acute Myeloid Leukemia) cells treated with cytarabine (part of a classical chemotherapy regimen for human AML) was examined. Specifically, whether cell surface PS-expressing acute myelocytic leukemia (AML) cells survived was examined. FACS was used to identify and sort cells with high cell surface PS-expression and the ability to survive was measured. FIG. 1A-FIG. 1B). In FIG. 1A, FACS sorting of untreated c1498 cells (in DMEM with 8% FBS). The rectangles indicate the sorted cells. In FIG. 1B, FACS sorting of c1498 cells treated with cytarabine (1 μM) for 24 hrs). […] When the cells reached sufficient numbers, the cells were counted at different time points to measure growth rates. […]

KG1a human AML cell line = assay: Phagocytosis assay with THP1-derived macrophages; type: cell-based; conditions: untreated or doxorubicin-treated cells; 2 hrs incubation; versus isotype control (IgG1)
Description: THP1 cells transduced with mCherry were differentiated into macrophages following previously established procedures. The macrophages were then incubated with non-treated or doxorubicin-treated KG1a human AML cell line transduced with EGFP in the presence of either isotype control (IgG1) or AnnexinV-IgG1Fc. After 2 hrs of incubation, the macrophages and the KG1a cells they have engulfed were counted.
The ability of THP1-derived macrophages to phagocytose control or doxorubicin-treated […] cells was examined. […] Representative fluorescence images of phagocytosis assay. THP1 cells transduced with mCherry were differentiated into macrophages following previously established procedures. The cells were then incubated with non-treated or doxorubicin-treated KG1a human AML cell line transduced with EGFP in the presence of either isotype control (IgG1) or AnnexinV-IgG1Fc. After 2 hrs of incubation, the macrophages and the KG1a cells they have engulfed were counted (FIG. 2A). Quantitative estimates of phagocytosis of KG1a cells by THP1-derived macrophages, the phagocytic index was calculated as: (Average number of KG1a cells engulfed per macrophage)×(percentage of macrophages which have engulfed KG1a cells)×[…] (FIG. 2B).

c1498 AML = assay: Survival of C57BL/6 mice injected with c1498 AML cells; type: in vivo; conditions: combination: cytarabine 100 mg/kg i.p. every 12 hrs for 3 times, then Annexin V-Fc i.p. 4 times at 72 hours intervals
Description: About 2×10^5 c1498 cells were injected into the tail vein of C57BL/6 mice. At 24 hrs after the injection, the mice were treated with 100 mg/kg cytarabine (injected i.p. every 12 hrs for 3 times). At 24 hrs after the last treatment, Annexin V-Fc was given i.p. 4 times at 72 hours intervals. The mice were then observed and sacrificed until they were moribund. Shown were the survival of different mice after they were treated with different antibody and drug combinations.
Whether Annexin V-IgG1Fc fusion protein can enhance the treatment of c1498 AML in syngeneic mice (C57BL/6) in combination with cytarabine, a commonly used drug for AML treatment, was examined. […] Here, about 2×10^5 c1498 cells were injected into the tail vein of C57BL/6 mice. At 24 hrs after the injection, the mice were treated with 100 mg/kg cytarabine (injected i.p. every 12 hrs for 3 times). At 24 hrs after the last treatment, Annexin V-Fc was given i.p. 4 times at 72 hours intervals. The mice were then observed and sacrificed until they are moribund.

[2] = versus doxorubicin; cited from earlier work

CCc1c2c(nc3ccc(O)cc13)-c1cc3c(c(=O)n1C2)COC(=O)[C@]3(O)CC [SN-38, 7-ethyl-10-hydroxy-camptothecin]
cytotoxic activity relative to irinotecan (various cancer cells): up to 1,000 fold

Nc1ccn([C@@H]2O[C@H](CO)[C@@H](O)[C@@H]2O)c(=O)n1 [cytarabine]
viability at 1 µM ([1]; read-out: proportion of PS+7AAD+ c1498 cells that remained viable and could proliferate): ~8% | viability at 1 µM ([1]; read-out: proportion of PS+7AAD- c1498 cells that remained viable and could proliferate): ~25%

Annexin V-IgG1Fc fusion protein: Annexin V fused to the Fc domain of IgG1; SEQ ID NO:85 is the form with secretion signal
phagocytosis of AML cells by THP1-derived macrophages (phagocytic index) (KG1a human AML cell line): effectively boosted the phagocytosis | median survival of host mice (c1498 AML): > 62 days

calicheamicin
potency relative to doxorubicin [2]: approximately 4000 times
